# Data as given in patent publication EP1455790B1, “USE OF PYRIDINE-2,4-DICARBOXYLIC ACID DIAMIDES AND OF PYRIMIDINE-4,6-DICARBOXYLIC ACID DIAMIDES FOR SELECTIVE COLLAGENASE INHIBITION” (Sanofi-Aventis Deutschland GmbH, priority 2001, dated 2003).
# Like-named read-outs stand apart in the source and are kept apart here.
# Target: T1, katalytischen Domäne der humanen Kollagenase -3(MMP-13) (Homo sapiens, UniProt P45452)
# T1 construct: Die Enzymlösung enthält 1,67 µg/mL der Enzymdomäne; purchased INVITEK, Berlin 30100 803
# Assay: Enzymatic activity of the catalytic domain of human collagenase-3 (MMP-13), fluorogenic substrate
# Format: biochemical
# Description: Aktivierung des Proenzyms: 2 Volumenanteile Proenzym werden mit 1 Volumenanteil APMA-Lösung bei 37 °C für 1,5 Stunden inkubiert. Die APMA-Lösung wird aus einer 10 mmol/L p-Aminophenyl-Mercuric Acetate Lösung in 0,1 mmol/L NaOH durch Verdünnen mit 3 Volumenteile Tris/HCl Puffer pH7,5 (siehe unten) hergestellt. Der pH-Wert wird durch Zugabe von 1 mmol/L HCl zwischen 7;0 und 7,5 eingestellt. Nach der Aktivierung des Enzyms wird dieses mit dem Tris/HCl Puffer auf eine Konzentration von 1,67 µg/mL verdünnt.
# Zur Messung der Enzymaktivität werden 10 µL Enzymlösung mit 10 µL einer 3%igen (v/v) gepufferten Dimethylsulfoxid-Lösung (Reaktion 1) für.15 Minuten inkubiert. Zur Messung der Enzyminhibitoraktivität werden 10 µL Enzymlösung mit 10 µL einer 3%igen (v/v) gepufferten Dimethylsulfoxid-Lösung, die den Enzyminhibitor enthält, inkubiert (Reaktion 2).
# Die Enzymaktivität wird dargestellt als Extinktionszunahme/Minute. […] Die Pufferlösung enthält 0,05% Brij (Sigma, Deisenhofen, Deutschland) sowie 0,1 mol/L Tris/HCI, 0,1 mol/L NaCI, 0,01 mol/L CaCl2 (pH=7,5). Die Enzymlösung enthält 1,67 µg/mL der Enzymdomäne. Die Substratlösung enthält 0,75 mmol/L des fluorogenen Substrates (7-Methoxycoumarin-4-yl)acetyl-Pro-Leu-Gly-Leu-3-(2',4'-dinitrophenyl)-L-2,3-diaminopropionyl-Ala-Arg-NHz (Bachem, Heidelberg, Deutschland).
smiles,measurement,setting,value
"CCNC(=O)c1cc(C(=O)NCC)ncn1 [Pyrimidin-4,6-dicarbonsäurediethylamid]",IC50,"comparative example, same method as Table 4, read-out: IC50-Wertes für die Inhibition der humanen Kollagenase -3 (MMP-13)",90 µM
"O=C(NCc1ccccc1)c1cc(C(=O)NCc2ccccc2)ncn1 [Beispiel 1, Pyrimidin-4,6-dicarbonsäure-dibenzylamid]",IC50,"catalytic domain, APMA-activated pro-enzyme, Tris/HCl buffer pH 7,5, read-out: IC50 MMP13",0.4 µM
